Two compounds from US20240287042A1, “NOVEL COMPOUND HAVING INHIBITORY ACTIVITY AGAINST PENDRIN, AND PHARMACEUTICAL USES THEREOF” (UIF (University Industry Foundation), Yonsei University, priority 2021, published 2024) can be followed below.

Some results are limits rather than exact numbers.

The test system of assay [1] is C57BL/6N mice. Nature of the assay: Diuretic effect in mice (urine volume). It is filed as in vivo. Particulars: i.p. twice at 3 h interval, urine volume after 6 hours, alone. The protocol:
Wild-type male C57BL/6N mice aged 8 weeks and weighing 20-24 g were purchased from Orient Bio (Seongnam, South Korea). Before the experiment, water and diet were restricted, and the bladder was stimulated to induce urine. A 100 mg/ml stock concentration of YPI-A4948 dissolved in DMSO was prepared to have final concentrations of 0.001 mg/kg/100 ul, 0.005 mg/kg/100 ul and […] mg/kg/100 ul, 0.1 mg/kg/100 ul, 0.5 mg/kg/100 ul and 1 mg/kg/100 ul (1% DMSO+DW), respectively, and injected intraperitoneally twice with an interval of 3 hours. After 6 hours, the urine volume of each group of mice was measured.

The target in assay [2] is T1, human wild-type (WT)-SLC26A3 (Homo sapiens, UniProt P40879).
T1 construct: expressed in transfected cells
T1 sequence (P40879 1-764): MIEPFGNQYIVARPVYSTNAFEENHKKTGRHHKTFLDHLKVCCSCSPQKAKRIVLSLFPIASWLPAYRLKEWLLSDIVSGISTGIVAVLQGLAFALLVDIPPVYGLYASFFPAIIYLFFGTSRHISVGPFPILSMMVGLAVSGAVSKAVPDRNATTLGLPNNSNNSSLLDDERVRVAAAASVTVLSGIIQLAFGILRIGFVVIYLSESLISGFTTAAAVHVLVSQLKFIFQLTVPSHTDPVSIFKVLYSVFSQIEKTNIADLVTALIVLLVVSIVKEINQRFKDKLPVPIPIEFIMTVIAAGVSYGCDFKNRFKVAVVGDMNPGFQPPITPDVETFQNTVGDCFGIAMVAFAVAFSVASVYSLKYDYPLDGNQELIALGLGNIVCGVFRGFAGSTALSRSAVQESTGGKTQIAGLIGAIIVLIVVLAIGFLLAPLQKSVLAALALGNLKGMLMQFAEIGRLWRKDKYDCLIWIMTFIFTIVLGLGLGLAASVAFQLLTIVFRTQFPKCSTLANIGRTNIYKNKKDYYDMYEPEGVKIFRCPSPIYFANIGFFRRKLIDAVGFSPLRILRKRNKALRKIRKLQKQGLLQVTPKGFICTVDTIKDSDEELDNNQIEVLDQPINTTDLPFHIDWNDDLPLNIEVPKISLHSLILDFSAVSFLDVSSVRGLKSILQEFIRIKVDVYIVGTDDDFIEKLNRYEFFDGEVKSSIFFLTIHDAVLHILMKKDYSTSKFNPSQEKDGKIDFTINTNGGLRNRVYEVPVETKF
The assay can be described thus: SLC26A3 Cl−/I− exchange activity, YFP fluorescence in LN-215 cells. It is filed as cell-based. The note with it: for IC50: LN-215-YFP cells, FIG. 2, read-out: IC50 of Cl−/I− anion exchange by SLC26A3. The protocol:
LN-215 cells were cultured in DMEM medium containing 10% fetal bovine serum (FBS), 100 units/ml of penicillin and 100 μg/ml streptomycin. LN-215 cells were stably transfected with pcDNA3.1 encoding the halide sensor YFP-H148Q/I152L/F46L and human wild-type (WT)-SLC26A3.
LN-215 cells expressing human WT SLC26A3 and YFP-F46L/H148Q/I152L were plated in 96-well microplates at a density of 2×10^4 cells per well, and cultured for 48 hours. Each well of the cell cultured 96-well plate was washed 2 times with 200 μL of PBS, and filled with 50 μL of HEPES buffered solution (140 mM NaCl, 5 mM KCl, 1 mM MgCl2, 1 mM CaCl2), 10 mM glucose and 10 mM HEPES (pH 7.4)). Test compounds (1 μL) were added to a final concentration of 100 μM. After culturing at 37° C. for 10 minutes, the 96-well plate was located on the FLUOstar Omega Microplate Reader (BMG Labtech, Ortenberg, Germany) for a fluorescence assay. Fluorescence was recorded continuously (400 ms per point) for 1 second (baseline), whereby each well was assayed individually for SLC26A3-mediated I-influx. Then, 50 μL of NaI-substituted HEPES buffered solution (replacing NaCl with NaI) was added using a liquid injector at 1 second, and YFP fluorescence was recorded for 5 seconds. The initial iodide influx rate was determined from the initial slope of fluorescence by nonlinear regression, after the injection of iodide.
In the case of SLC26A3 and SLC26A6, each transporter protein and halide sensitive YFP were expressed in LN-215 cells to measure the activity of the transporter protein.
Other details were carried out in the same manner as Example 5.

For assay [3], the system named is Adriamycin-induced heart failure mouse model. Nature of the assay: Diuretic effect in Adriamycin-induced heart failure mouse model. It is filed as in vivo, C57BL/6N mice. Particulars: heart failure mice. The protocol:
Wild-type male C57BL/6N mice aged 8 weeks and weighing 20-24 g were purchased from Orient Bio (Seongnam, South Korea). Cardiac ultrasound imaging was performed before administration of Adriamycin. […] Five weeks later, cardiac ultrasound imaging was performed to confirm whether heart failure had been induced.
A 100 mg/ml stock concentration of YPI-A4948 dissolved in DMSO was prepared to have final concentrations of 0.1 mg/kg/100 ul, 0.5 mg/kg/100 ul and 1 mg/kg/100 ul (1% DMSO+DW), respectively. Heart failure mice were placed in mouse metabolic cages, and water and food were restricted. Before administering YPI-A4948, the bladder of the mouse was stimulated, and YPI-A4948 was injected intraperitoneally alone for two times in total, once every 3 hours for 6 hours. In other groups, it was administered with furosemide at 0.5 mg/kg and 1 mg/kg, respectively, in order to confirm the co-administration effect with other diuretics. Urine was collected from each group of mice after 6 hours.

With `Cc1ccc2[nH]c(C(=O)O)c(CC(=O)N3CCN(c4c(C)cccc4Cl)CC3)c2c1` [YPI-A4948, 3-(2-(4-(2-Chloro-6-methylphenyl)piperazin-1-yl)-2-oxoethyl)-5-methyl-1H-indole-2-carboxylic acid], the “Dose from which a diuretic effect is exhibited” value in assay [1] was at least 0.01 mg/kg. For the same compound, in assay [2], the “Selectivity for pendrin than SLC26A3” value is “about 18 times” and the IC50 was 11.4 µM. The “Diuretic effect, co-administered with furosemide” value in assay [3] (0.5 mg/kg YPI-A4948 and 1.0 mg/kg furosemide) is reported as “additive effect”. Moreover, the “Diuretic effect, administered alone” value in assay [3] (1 mg/kg i.p. twice in 6 hours) is reported as “showed a diuretic effect”.

On to `Cc1ccc(C)c(N2CCN(C(=O)Cc3c(C(=O)O)[nH]c4ccc(Cl)cc34)CC2)c1` [YPI-H05, 5-chloro-3-(2-(4-(2,5-dimethylphenyl)piperazin-1-yl-)-2-oxoethyl)-1H-indole-2-carboxylic acid], for which the IC50 in assay [2] is 3.8 µM.
